Data: BindingDB's records for patent US9328099 (Merck Sharp & Dohme, 2016)

How the values were obtained:
[1] = molecular target: Tyrosine-protein kinase JAK1 (Homo sapiens, UniProt P23458); experiment: HTRF Biochemical Assay; conditions: 25 °C
[2] = molecular target: Tyrosine-protein kinase JAK2 (Homo sapiens, UniProt O60674); experiment: HTRF Biochemical Assay; conditions: 25 °C
Tyrosine-protein kinase JAK2, sequence (O60674 whole entry): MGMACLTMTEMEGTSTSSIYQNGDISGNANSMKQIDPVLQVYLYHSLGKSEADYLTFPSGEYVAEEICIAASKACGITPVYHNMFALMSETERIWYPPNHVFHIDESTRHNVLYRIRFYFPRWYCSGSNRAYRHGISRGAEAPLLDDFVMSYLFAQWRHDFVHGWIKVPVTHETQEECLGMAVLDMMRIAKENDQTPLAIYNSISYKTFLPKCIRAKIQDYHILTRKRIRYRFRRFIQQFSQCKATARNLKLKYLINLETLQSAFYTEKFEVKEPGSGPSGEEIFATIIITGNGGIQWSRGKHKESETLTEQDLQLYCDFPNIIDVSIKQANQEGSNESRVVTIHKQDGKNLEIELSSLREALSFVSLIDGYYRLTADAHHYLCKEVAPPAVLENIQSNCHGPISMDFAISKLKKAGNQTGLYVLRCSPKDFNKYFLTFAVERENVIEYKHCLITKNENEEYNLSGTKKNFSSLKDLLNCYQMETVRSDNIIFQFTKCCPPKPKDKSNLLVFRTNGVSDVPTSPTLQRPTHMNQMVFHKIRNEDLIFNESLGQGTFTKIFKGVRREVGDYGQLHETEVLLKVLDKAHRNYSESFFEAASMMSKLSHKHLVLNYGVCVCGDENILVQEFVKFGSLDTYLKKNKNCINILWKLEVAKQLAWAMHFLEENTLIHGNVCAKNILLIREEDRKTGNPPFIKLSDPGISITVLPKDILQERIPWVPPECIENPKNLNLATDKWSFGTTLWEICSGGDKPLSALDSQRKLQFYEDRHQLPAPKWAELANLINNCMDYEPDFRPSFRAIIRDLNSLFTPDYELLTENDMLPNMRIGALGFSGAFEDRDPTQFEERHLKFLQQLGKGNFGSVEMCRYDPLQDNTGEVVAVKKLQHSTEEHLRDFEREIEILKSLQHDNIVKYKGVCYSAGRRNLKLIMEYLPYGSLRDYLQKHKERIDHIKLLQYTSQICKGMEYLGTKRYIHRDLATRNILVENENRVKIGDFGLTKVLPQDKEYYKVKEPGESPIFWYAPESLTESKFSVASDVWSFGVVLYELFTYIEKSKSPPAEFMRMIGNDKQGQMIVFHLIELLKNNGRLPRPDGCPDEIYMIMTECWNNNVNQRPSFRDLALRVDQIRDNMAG

Tyrosine-protein kinase JAK1, sequence (P23458 whole entry): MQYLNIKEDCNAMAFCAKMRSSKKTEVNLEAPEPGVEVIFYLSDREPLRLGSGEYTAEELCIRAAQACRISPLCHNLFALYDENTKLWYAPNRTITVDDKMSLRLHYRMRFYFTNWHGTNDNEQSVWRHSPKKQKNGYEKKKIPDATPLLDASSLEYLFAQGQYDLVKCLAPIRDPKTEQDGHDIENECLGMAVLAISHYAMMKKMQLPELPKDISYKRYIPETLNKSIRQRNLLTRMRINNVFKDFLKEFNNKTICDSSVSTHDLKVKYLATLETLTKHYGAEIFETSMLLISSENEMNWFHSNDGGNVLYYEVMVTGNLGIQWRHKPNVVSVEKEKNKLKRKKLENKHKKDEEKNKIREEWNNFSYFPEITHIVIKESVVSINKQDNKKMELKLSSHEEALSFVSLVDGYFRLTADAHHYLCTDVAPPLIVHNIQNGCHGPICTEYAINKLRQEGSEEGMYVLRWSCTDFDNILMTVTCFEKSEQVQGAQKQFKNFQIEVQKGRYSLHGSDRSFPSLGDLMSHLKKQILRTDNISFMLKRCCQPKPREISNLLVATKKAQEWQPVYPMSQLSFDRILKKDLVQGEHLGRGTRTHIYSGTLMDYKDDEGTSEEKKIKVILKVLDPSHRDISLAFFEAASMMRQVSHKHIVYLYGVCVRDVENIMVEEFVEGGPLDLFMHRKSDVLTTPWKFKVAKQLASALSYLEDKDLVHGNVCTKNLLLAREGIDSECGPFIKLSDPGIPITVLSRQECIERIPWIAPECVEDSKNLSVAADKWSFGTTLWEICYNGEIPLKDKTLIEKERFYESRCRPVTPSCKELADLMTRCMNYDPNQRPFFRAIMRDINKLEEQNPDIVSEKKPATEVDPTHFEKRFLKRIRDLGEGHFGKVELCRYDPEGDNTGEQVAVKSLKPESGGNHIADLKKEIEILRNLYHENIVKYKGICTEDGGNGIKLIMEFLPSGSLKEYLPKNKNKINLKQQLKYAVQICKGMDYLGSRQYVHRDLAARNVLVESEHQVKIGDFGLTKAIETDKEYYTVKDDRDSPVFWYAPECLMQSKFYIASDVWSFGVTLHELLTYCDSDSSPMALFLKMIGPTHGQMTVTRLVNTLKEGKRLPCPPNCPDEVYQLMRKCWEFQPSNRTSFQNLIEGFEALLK

## Cc1cc(F)c(Nc2ccnc3c2C(=O)Nc2cc(CN4CC[C@@H](N)C4)ccc2N3)cc1O [US9328099, 29-A]
[1]
  IC50: 1 nM
[2]
  IC50: 40 nM
